Source: US11377466B2, “Analogs of the natural product icariin” (Whitehead Institute for Biomedical Research, priority 2018, dated 2022)
Like-named read-outs stand apart in the source and are kept apart here. Each block holds one compound with its values, some of them ahead of it.

What was measured:
human PDE5 [1] = biological target: T1, human PDE5 (Homo sapiens, UniProt O76074); conditions: reported by Dell'Agli et al.; COS-7 lysate expressing human PDE5; cited from earlier work
T1 construct: host or cells: COS-7 cells (lysate), transfected with human PDE5

[2] = biological target: T2, purified recombinant human PDE5 (Homo sapiens, UniProt O76074); test: In vitro PDE5 inhibition assay (GMP production from cGMP, LC-MS); type: biochemical; conditions: for IC50: cGMP at 1/10 of Km
T2 construct: purchased Abcam AB125581
Experimental: To evaluate the nine icariin analogs, the IC50 of each analog, icariin, and sildenafil were measured in an in vitro PDE5 inhibition assay, which measures GMP production from cGMP by purified recombinant human PDE5. Table 1 summarizes the IC50 values obtained for the nine icariin analogs tested. Fold improved potency in Table 1 refers to fold change in IC50 compared to icariin.
[…]. […] PDE5 (purified recombinant human PDE5 purchased from Abcam, Product No. AB125581) was added to start the reaction. The reaction was at room temperature until approximately 10-15% of cGMP in uninhibited control reactions was consumed. Keeping cGMP concentration low and staying within a linear reaction ensured that the reaction remained within Michaelis-Menten model assumptions and that the IC50 could be approximated to the inhibition constant or Ki (as substrate concentration decreases, IC50 value approaches Ki value). The reaction was stopped with the addition of 0.1 M hydrochloric acid. The amount of GMP produced was measured by LC-MS.

SKMEL-5 cells = test: Cytotoxicity measured by resazurin, SKMEL-5; type: cell-based; conditions: Homo sapiens, SK-MEL-5, 0-10 μM
Experimental: (§1) A general feature of compounds with promise as viable therapeutics is a lack of toxicity to human cells. To test the icariin analogs for this feature, each analog was assayed against a panel of five human cell lines for cytotoxicity. The five human cell lines represent various tissue types—normalized, untransformed epithelial cells derived from fetal foreskin, neuroblastoma, melanoma, prostate, and lung. A Western blot against PDE5 confirmed that all five cell lines express PDE5 protein (data not shown). Compounds 2-7 were assayed at concentrations ranging from 0-10 μM, ensuring that all compounds remained soluble. […]

BJHTERT+ cells = test: Cytotoxicity measured by resazurin, BJHTERT+ (BjH+); type: cell-based; conditions: Homo sapiens, 0-10 μM
Experimental: as §1

H187 cells = test: Cytotoxicity measured by resazurin, H187; type: cell-based; conditions: Homo sapiens, NCI-H187, 0-10 μM
Experimental: as §1

[3] = system: panel of five human cell lines; test: Cytotoxicity against a panel of five human cell lines (resazurin); type: cell-based; conditions: 2 and 4: two out of five cell lines, 6: three out of five cell lines, 0-10 μM, read-out: IC50 of toxicity in the affected cell lines
Experimental: as §1

human PDE5 [4] = biological target: T1, human PDE5; conditions: competitive inhibitor of human PDE5; previous work; cited from earlier work
[5] = system: cavernous smooth muscle cells; conditions: cavernous smooth muscle cells isolated from icariin-treated mice; cited from earlier work
[6] = purified recombinant human PDE5

SMILES: COc1ccc(-c2oc3c(CC=C(C)C)c(O)cc(O)c3c(=O)c2O[C@@H]2O[C@H](C)[C@@H](O)[C@H](O)[C@@H]2O)cc1 [Compound 1, icariside II]
IC50 (human PDE5 [1]): 0.16 µM

SMILES: COc1ccc(-c2oc3c(CC=C(C)C)c(O)cc(O)c3c(=O)c2OCCO)cc1 [Compound 6]
IC50 (SKMEL-5 cells): 4.45 µM
IC50 (BJHTERT+ cells): 6.73 µM
IC50 (H187 cells): 5.92 µM
IC50 [3]: 4 to 7 µM

SMILES: COc1ccc(-c2oc3c(CC=C(C)C)c(O[C@@H]4O[C@H](CO)[C@@H](O)[C@H](O)[C@H]4O)cc(O)c3c(=O)c2OCC(C)O)cc1 (stereo partly shown) [Compound 5]
IC50 [2, 6]: 0.5 ± 0.1 µM

SMILES: COc1ccc(-c2oc3c(CC=C(C)C)c(O[C@@H]4O[C@H](CO)[C@@H](O)[C@H](O)[C@H]4O)cc(O)c3c(=O)c2O[C@@H]2O[C@@H](C)[C@H](O)[C@@H](O)[C@H]2O)cc1 [icariin]
Field improved potency ([2]; fold change in IC50 compared to icariin): 1
IC50 [2, 6]: 6 ± 1 µM
IC50 (human PDE5 [4]): 1 to 6 µM
cGMP levels [5]: increase cGMP levels

Second part, the compound after the results:

IC50 [2, 6]: 1.8 ± 0.8 µM
SMILES: COc1ccc(-c2oc3c(CC=C(C)C)c(O)cc(O)c3c(=O)c2O)cc1 [Compound 9, icaritin]

Ki ([2]; enzyme kinetics, purified recombinant human PDE5): 0.036 ± 0.005 µM
IC50 [2, 6]: 0.083 ± 0.01 µM
SMILES: COc1ccc(-c2oc3c(CC=C(C)C)c(O[C@@H]4O[C@H](CO)[C@@H](O)[C@H](O)[C@H]4O)cc(O)c3c(=O)c2OCCO)cc1 [Compound 3]
